Where a name gives a salt, the structure may show the parent alone. Read-outs that look alike come from different tables or passages of the source.
Assays:
Streptococcus pyogenes [1] = test: s.c. treatment of mice before i.p. infection, Streptococcus pyogenes; type: in vivo; conditions: sc, 5 hours before i.p. infection
Procedure: (§1) The long retention of the products in accordance with the invention in the organism is also evident after the s.c. treatment of mice with product A or C 5 hours before a i.p. infection with the microorganism to be tested, the following Ed50 values being ascertained: […]

Escherichia coli [2] = test: s.c. treatment of mice before i.p. infection, Escherichia coli; type: in vivo; conditions: sc, administered 24 hours before the infection
Procedure: The long retention of the products in accordance with the invention in the organism is also evident after the s.c. treatment of mice with product A or C 5 hours before a i.p. infection with the microorganism to be tested, the following Ed50 values being ascertained: | *Administered 24 hours before the infection.

Klebsiella pneumoniae = test: MIC in vitro, Klebsiella pneumoniae; type: cell-based
Procedure: (§2) The following products were tested:
(§3) The following results relate to the minimum inhibitory concentration (MIC) in vitro (μg/ml): […]

Enterobacter cloacae = test: MIC in vitro, Enterobacter cloacae; type: cell-based
Procedure: as §2, §3

Escherichia coli [3] = test: MIC in vitro, Escherichia coli; type: cell-based
Procedure: as §2, §3

Streptococcus pneumoniae = test: MIC in vitro, Streptococcus pneumoniae; type: cell-based
Procedure: as §2, §3

Serratia marcescens [4] = test: MIC in vitro, Serratia marcescens; type: cell-based
Procedure: as §2, §3

Neisseria meningitidis = test: MIC in vitro, Neisseria meningitidis; type: cell-based
Procedure: as §2, §3

Haemophilus influenzae = test: MIC in vitro, Haemophilus influenzae; type: cell-based
Procedure: as §2, §3

Streptococcus pyogenes [5] = test: MIC in vitro, Streptococcus pyogenes; type: cell-based
Procedure: as §2, §3

Proteus rettgeri = test: MIC in vitro, Proteus rettgeri; type: cell-based; conditions: Providencia rettgeri
Procedure: as §2, §3

Proteus mirabilis = test: MIC in vitro, Proteus mirabilis; type: cell-based
Procedure: as §2, §3

Proteus morganii = test: MIC in vitro, Proteus morganii; type: cell-based; conditions: Morganella morganii
Procedure: as §2, §3

Pseudomonas aeruginosa = test: MIC in vitro, Pseudomonas aeruginosa; type: cell-based
Procedure: as §2, §3

Streptococcus viridans = test: MIC in vitro, Streptococcus viridans; type: cell-based
Procedure: as §2, §3

[6] = half-life in vivo after i.v. administration; conditions: rat, plasma, iv; 20 mg i.v., rats
Excerpt: The compounds of formula I as well as the corresponding readily hydrolyzable esters, readily hydrolyzable ethers and salts and the hydrates of same have antibiotic, especially bactericidal, activity.

Citrobacter freundii = test: MIC in vitro, Citrobacter freundii; type: cell-based
Procedure: as §2, §3

[7] = system: Staphylococcus epidermidis; test: MIC in vitro, Staphylococcus epidermidis; type: cell-based
Procedure: as §2, §3

Serratia marcescens [8] = test: s.c. treatment of mice before i.p. infection, Serratia marcescens; type: in vivo; conditions: sc, 5 hours before i.p. infection
Procedure: as §1

Neisseria gonorrhoeae = test: MIC in vitro, Neisseria gonorrhoeae; type: cell-based
Procedure: as §2, §3

[9] = toxicity, 24 hours values; type: in vivo; conditions: 24 hours value; for MTD at 24 h: in vivo, read-out: Tolerated dosage
Procedure: The compounds in accordance with the invention are non-toxic, as will be evident from the following data for the 24 hours values of products A and B: […]

Proteus inconstans = test: MIC in vitro, Proteus inconstans; type: cell-based; conditions: Providencia alcalifaciens
Procedure: as §2, §3

Streptococcus faecalis = test: MIC in vitro, Streptococcus faecalis; type: cell-based; conditions: Enterococcus faecalis
Procedure: as §2, §3

Proteus vulgaris = test: MIC in vitro, Proteus vulgaris; type: cell-based
Procedure: as §2, §3

Enterobacter aerogenes = test: MIC in vitro, Enterobacter aerogenes; type: cell-based; conditions: Klebsiella aerogenes
Procedure: as §2, §3

Staphylococcus aureus = test: MIC in vitro, Staphylococcus aureus; type: cell-based
Procedure: as §2, §3

Cn1nc(OCOC(=O)C(C)(C)C)c(=O)nc1SCC1=C(C(=O)OCOC(=O)C(C)(C)C)N2C(=O)[C@@H](NC(=O)/C(=N\O)c3csc(N)n3)[C@H]2SC1 [Product C, Methylene-(6R,7R)-7-[2-(2-amino-4-thiazolyl)-2-(Z-hydroxyimino)acetamido]-3-[[[2,5-dihydro-2-methyl-5-oxo-6-[(pivaloyloxy)methoxy]-as-triazin-3-yl]thio]methyl]-8-oxo-5-thia-1-azabicyclo[4.2.0]-oct-2-ene-2-carboxylate pivalate]
ED50 (Streptococcus pyogenes [1]): 0.45 mg/kg
ED50 (Escherichia coli [2]): 5.6 mg/kg

Cn1nc(O)c(=O)nc1SCC1=C(C(=O)O)N2C(=O)[C@@H](NC(=O)/C(=N\O)c3csc(N)n3)[C@H]2SC1 [Product A, (6R,7R)-7-[2-(2-Amino-4-thiazolyl)-2-(Z-hydroxyimino)acetamido]-3-/[(2,5-dihydro-6-hydroxy-2-methyl-5-oxo-as-triazin-3-yl)thio]methyl/-8-oxo-5-thia-1-azabicyclo[4.2.0]oct-2-ene-2-carboxylic acid disodium salt]
MIC (Klebsiella pneumoniae; strain 1): 0.02 µg/mL
MIC (Klebsiella pneumoniae; strain 2): 0.1 µg/mL
MIC (Klebsiella pneumoniae; strain 3): 0.025 µg/mL
MIC (Klebsiella pneumoniae; strain 4): 0.05 µg/mL
MIC (Enterobacter cloacae; strain 1): 20 µg/mL
MIC (Enterobacter cloacae; strain 2): > 80 µg/mL
MIC (Enterobacter cloacae; strain 3): > 25 µg/mL
MIC (Enterobacter cloacae; strain 4): 12.5 µg/mL
MIC (Escherichia coli [3]; strain 1): 1.2 µg/mL
MIC (Escherichia coli [3]; strain 2): 1.2 µg/mL
MIC (Escherichia coli [3]; strain 3): 2.5 µg/mL
MIC (Escherichia coli [3]; strain 4): 0.31 µg/mL
MIC (Escherichia coli [3]; strain 5): 0.4 µg/mL
MIC (Escherichia coli [3]; strain 6): 0.2 µg/mL
MIC (Escherichia coli [3]; strain 7): 0.025 µg/mL
MIC (Escherichia coli [3]; strain 8): 0.05 µg/mL
MIC (Streptococcus pneumoniae): 0.4 µg/mL
MIC (Serratia marcescens [4]; strain 1): 0.16 µg/mL
MIC (Serratia marcescens [4]; strain 2): 0.31 µg/mL
MIC (Serratia marcescens [4]; strain 3): 0.31 µg/mL
MIC (Serratia marcescens [4]; strain 4): 0.63 µg/mL
MIC (Serratia marcescens [4]; strain 5): 0.31 µg/mL
MIC (Serratia marcescens [4]; strain 6): 0.31 µg/mL
MIC (Serratia marcescens [4]; strain 7): 0.31 µg/mL
MIC (Serratia marcescens [4]; strain 8): 0.31 µg/mL
MIC (Serratia marcescens [4]; strain 9): 0.16 µg/mL
MIC (Serratia marcescens [4]; strain 10): 0.8 µg/mL
MIC (Serratia marcescens [4]; strain 11): 6.3 µg/mL
MIC (Serratia marcescens [4]; strain 12): 0.1 µg/mL
MIC (Neisseria meningitidis; strain 1): 0.0025 µg/mL
MIC (Neisseria meningitidis; strain 2): 0.0025 µg/mL
MIC (Neisseria meningitidis; strain 3): 0.0025 µg/mL
MIC (Neisseria meningitidis; strain 4): 0.0012 µg/mL
MIC (Haemophilus influenzae; strain 1): 0.63 µg/mL
MIC (Haemophilus influenzae; strain 2): 0.04 µg/mL
MIC (Haemophilus influenzae; strain 3): 0.04 µg/mL
MIC (Haemophilus influenzae; strain 4): 0.04 µg/mL
MIC (Haemophilus influenzae; strain 5): 0.04 µg/mL
MIC (Haemophilus influenzae; strain 6): 0.02 µg/mL
MIC (Haemophilus influenzae; strain 7): 0.04 µg/mL
MIC (Streptococcus pyogenes [5]; strain 1): 0.1 µg/mL
MIC (Streptococcus pyogenes [5]; strain 2): 0.05 µg/mL
MIC (Proteus rettgeri; strain 1): 0.63 µg/mL
MIC (Proteus rettgeri; strain 2): 0.05 µg/mL
MIC (Proteus mirabilis; strain 1): 0.02 µg/mL
MIC (Proteus mirabilis; strain 2): 0.025 µg/mL
MIC (Proteus mirabilis; strain 3): 0.05 µg/mL
MIC (Proteus mirabilis; strain 4): 0.025 µg/mL
MIC (Proteus morganii; strain 1): ≤ 0.04 µg/mL
MIC (Proteus morganii; strain 2): 0.05 µg/mL
MIC (Pseudomonas aeruginosa; strain 1): > 80 µg/mL
MIC (Pseudomonas aeruginosa; strain 2): > 80 µg/mL
MIC (Pseudomonas aeruginosa; strain 3): 40 µg/mL
MIC (Pseudomonas aeruginosa; strain 4): 80 µg/mL
MIC (Pseudomonas aeruginosa; strain 5): > 80 µg/mL
MIC (Pseudomonas aeruginosa; strain 6): 10 µg/mL
MIC (Pseudomonas aeruginosa; strain 7): 5 µg/mL
MIC (Pseudomonas aeruginosa; strain 8): 20 µg/mL
MIC (Pseudomonas aeruginosa; strain 9): > 80 µg/mL
MIC (Pseudomonas aeruginosa; strain 10): 10 µg/mL
MIC (Pseudomonas aeruginosa; strain 11): 5 µg/mL
MIC (Pseudomonas aeruginosa; strain 12): > 80 µg/mL
MIC (Pseudomonas aeruginosa; strain 13): 80 µg/mL
MIC (Pseudomonas aeruginosa; strain 14): > 80 µg/mL
MIC (Pseudomonas aeruginosa; strain 15): 80 µg/mL
MIC (Pseudomonas aeruginosa; strain 16): > 80 µg/mL
MIC (Pseudomonas aeruginosa; strain 17): > 80 µg/mL
MIC (Streptococcus viridans): 1.6 µg/mL
half-life [6]: 2.33 h
MIC (Citrobacter freundii; strain 1): 80 µg/mL
MIC (Citrobacter freundii; strain 2): 6.3 µg/mL
MIC (Citrobacter freundii; strain 3): 0.2 µg/mL
MIC [7]: 1.6 µg/mL
ED50 (Serratia marcescens [8]): 0.89 mg/kg
MIC (Neisseria gonorrhoeae; strain 1): 0.0012 µg/mL
MIC (Neisseria gonorrhoeae; strain 2): 0.0012 µg/mL
MIC (Neisseria gonorrhoeae; strain 3): 0.02 µg/mL
MIC (Neisseria gonorrhoeae; strain 4): 0.01 µg/mL
MIC (Neisseria gonorrhoeae; strain 5): 0.04 µg/mL
MIC (Neisseria gonorrhoeae; strain 6): 0.0006 µg/mL
MTD at 24 h ([9]; intravenous): 500 mg/kg
MTD at 24 h ([9]; oral): 5000 mg/kg
Lethal dosage ([9]; intravenous): 1000 mg/kg
Lethal dosage ([9]; oral): > 5000 mg/kg
Lethal dosage ([9]; subcutaneous): > 4000 mg/kg
ED50 (Streptococcus pyogenes [1]): 0.15 mg/kg
MIC (Proteus inconstans; strain 1): 0.08 µg/mL
MIC (Proteus inconstans; strain 2): 0.01 µg/mL
MIC (Proteus inconstans; strain 3): ≤ 0.025 µg/mL
MIC (Streptococcus faecalis; strain 1): 25 µg/mL
MIC (Streptococcus faecalis; strain 2): > 25 µg/mL
MIC (Proteus vulgaris; strain 1): 0.31 µg/mL
MIC (Proteus vulgaris; strain 2): 0.31 µg/mL
MIC (Proteus vulgaris; strain 3): 0.63 µg/mL
MIC (Proteus vulgaris; strain 4): 3.1 µg/mL
MIC (Proteus vulgaris; strain 5): 0.1 µg/mL
MIC (Proteus vulgaris; strain 6): 0.05 µg/mL
MIC (Enterobacter aerogenes; strain 1): 0.1 µg/mL
MIC (Enterobacter aerogenes; strain 2): 0.8 µg/mL
MIC (Staphylococcus aureus; strain 1): 0.62 µg/mL
MIC (Staphylococcus aureus; strain 2: β-lactamase producing): 1.2 µg/mL
MIC (Staphylococcus aureus; strain 3): 1.6 µg/mL
MIC (Staphylococcus aureus; strain 4): 1.6 µg/mL
MIC (Staphylococcus aureus; strain 5): 1.6 µg/mL
MIC (Staphylococcus aureus; strain 6): 3.1 µg/mL

Source: patent publication US4774330A, “Cephalosporin intermediates” (Hoffmann-La Roche Inc., priority 1980, dated 1988)
